Source: publication PMC4460250, “Systems Pharmacology Dissecting Holistic Medicine for Treatment of Complex Diseases: An Example Using Cardiocerebrovascular Diseases Treated by TCM” (Evidence-based Complementary and Alternative Medicine : eCAM, 2015)
Where two headings read alike, the source gives them in different places.

Legend:
[1] = Human intestinal absorption percentage values of the PreHIA data set (732 compounds, Table S2); settings: class from HIA value
[2] = cited from earlier work
[3] = in vivo
[4] = human, PreHIA data set, value given as fraction

SMILES	Class(High: HIA value ≥0.7; Low: HIA value < 0.7) [1]	HIA(Human Intestinal Absorption) [2, 4]	Class(High: HIA value ≥0.7; Low: HIA value < 0.7) [3]	HIA(Human Intestinal Absorption) ([2]; in vivo)
Clc1ccc2c(c1)C(N1CCNCC1)=Nc1ccccc1O2 [Amoxapine]	High (High: HIA value ≥0.7)	0.95	–	–
CC1(C)S[C@@H]2[C@H](NC(=O)[C@H](N)c3ccc(O)cc3)C(=O)N2[C@H]1C(=O)O [Amoxicillin]	High (High: HIA value ≥0.7)	–	–	–
NS(=O)(=O)c1cc(-c2nnn[nH]2)c(NCc2cccs2)cc1Cl [Azosemide]	Low (Low: HIA value < 0.7)	0.1	–	–
CC(=O)Nc1ccc(OC(=O)c2ccccc2OC(C)=O)cc1 [Benorylate]	High (High: HIA value ≥0.7)	1	–	–
CN(Cc1cc(Br)cc(Br)c1N)C1CCCCC1 [Bromhexine]	High (High: HIA value ≥0.7)	0.7	–	–
O=C1CC2(CCCC2)CC(=O)N1CCCCN1CCN(c2ncccn2)CC1 [Buspirone]	High (High: HIA value ≥0.7)	1	–	–
CCCC[N+]1(C)[C@@H]2C[C@@H](OC(=O)[C@H](CO)c3ccccc3)C[C@H]1[C@@H]1O[C@@H]12 (stereo partly drawn) [Butylscopolamine]	Low (Low: HIA value < 0.7)	0.1	–	–
C[N+](C)(C)CC(O)CC(=O)[O-] (stereo not drawn) [Carnitine]	Low (Low: HIA value < 0.7)	0.1	–	–
O=C(O)[C@H](CCc1ccccc1)N[C@H]1CCCN2CCC[C@@H](C(=O)O)N2C1=O [Cilazaprilat]	Low (Low: HIA value < 0.7)	0.2	–	–
C=C[C@H]1C[N@@]2CC[C@H]1C[C@@H]2[C@@H](O)c1ccnc2ccccc12 [Cinchonine]	High (High: HIA value ≥0.7)	1	–	–
O=C(O)[C@H]1/C(=C/CO)O[C@@H]2CC(=O)N21 [Clavulanic_acid]	High (High: HIA value ≥0.7)	0.75	–	–
CN1CCC(=C2c3ccccc3C=Cc3ccccc32)CC1 [Cyproheptadine]	High (High: HIA value ≥0.7)	0.8	–	–
CCN(CC)CCOC(=O)C1(C2CCCCC2)CCCCC1 [Dicyclomine]	High (High: HIA value ≥0.7)	1	–	–
CN1C[C@H](C(=O)N[C@]2(C)O[C@@]3(O)[C@@H]4CCCN4C(=O)[C@H](Cc4ccccc4)N3C2=O)C[C@@H]2c3cccc4[nH]cc(c34)C[C@H]21 [Dihydroergotamine]	Low (Low: HIA value < 0.7)	0.35	–	–
CN(C(=O)C(Cl)Cl)c1ccc(O)cc1 [Diloxanide]	High (High: HIA value ≥0.7)	0.9	–	–
C[N+]1(C)CCC(=C(c2ccccc2)c2ccccc2)CC1 [Diphemanil]	Low (Low: HIA value < 0.7)	0.07	–	–
CN(C)CCC=C1c2ccccc2COc2ccccc21 [Doxepin]	High (High: HIA value ≥0.7)	1	–	–
NC(=O)OCC(COC(N)=O)c1ccccc1 [Felbamate]	High (High: HIA value ≥0.7)	0.9	–	–
CC(C)=CCC1C(=O)N(c2ccccc2)N(c2ccccc2)C1=O [Feprazone]	High (High: HIA value ≥0.7)	0.9	–	–
O=CN(O)CCCP(=O)(O)O [Fosmidomycin]	Low (Low: HIA value < 0.7)	0.3	–	–
C[C@H]([C@](O)(Cn1cncn1)c1ccc(F)cc1F)S(C)(=O)=O [Genaconazole]	High (High: HIA value ≥0.7)	1	–	–
COCCOc1cnc(NS(=O)(=O)c2ccccc2)nc1 [Glymidine]	High (High: HIA value ≥0.7)	0.95	–	–
N=C(N)NC(=O)Cc1c(Cl)cccc1Cl [Guanfacine]	High (High: HIA value ≥0.7)	1	–	–
O=C(c1ccc(F)cc1)C1CCN(CCn2c(=O)[nH]c3ccccc3c2=O)CC1 [Ketanserin]	High (High: HIA value ≥0.7)	1	–	–
CC(=O)N1CCN(c2ccc(OCC3COC(Cn4ccnc4)(c4ccc(Cl)cc4Cl)O3)cc2)CC1 (stereo not drawn) [Ketoconazole]	High (High: HIA value ≥0.7)	0.75	–	–
CN1CCC(=C2c3ccccc3CC(=O)c3sccc32)CC1 [Ketotifen]	High (High: HIA value ≥0.7)	0.9	–	–

SMILES	Class(High: HIA value ≥0.7; Low: HIA value < 0.7) [1]	HIA(Human Intestinal Absorption) [2, 4]	Class(High: HIA value ≥0.7; Low: HIA value < 0.7) [3]	HIA(Human Intestinal Absorption) ([2]; in vivo)
CCOC(=O)C1=C(C)NC(C)=C(C(=O)OCC)C1c1ccccc1/C=C/C(=O)OC(C)(C)C [Lacidipine]	High (High: HIA value ≥0.7)	0.98	–	–
C[C@@H]1CC(=O)NN=C1c1ccc(NN=C(C#N)C#N)cc1 [Levosimendan]	High (High: HIA value ≥0.7)	0.9	–	–
CCOC(=O)N1CCC(=C2c3ccc(Cl)cc3CCc3cccnc32)CC1 [Loratadine]	High (High: HIA value ≥0.7)	–	–	–
CN1C(C(=O)Nc2ccccn2)=C(O)c2sc(Cl)cc2S1(=O)=O [Lornoxicam]	High (High: HIA value ≥0.7)	1	–	–
C#C[C@]1(O)CC[C@H]2[C@@H]3CCC4=CCCC[C@@H]4[C@H]3CC[C@@]21C [Lynestrenol]	High (High: HIA value ≥0.7)	1	–	–
Cc1ccc(Cl)c(Nc2ccccc2C(=O)O)c1Cl [Meclofenamic_acid]	High (High: HIA value ≥0.7)	1	–	–
COc1ccc2cc(CCC(C)=O)ccc2c1 [Nabumetone]	High (High: HIA value ≥0.7)	0.8	–	–
CNS(=O)(=O)CCc1ccc2[nH]cc(C3CCN(C)CC3)c2c1 [Naratriptan]	High (High: HIA value ≥0.7)	0.7	–	–
C[C@@H]1O[C@@H](O[C@H]2C[C@@H](O)[C@]3(CO)[C@H]4[C@H](O)C[C@]5(C)[C@@H](C6=CC(=O)OC6)CC[C@]5(O)[C@@H]4CC[C@]3(O)C2)[C@H](O)[C@H](O)[C@H]1O [Ouabain]	Low (Low: HIA value < 0.7)	–	–	–
O[C@@](CCN1CCCCC1)(c1ccccc1)C1CCCCC1 [Trihexyphenidyl(R)]	–	–	High (key: High: HIA value ≥0.7; Low: HIA value < 0.7)	1
O[C@](CCN1CCCCC1)(c1ccccc1)C1CCCCC1 [Trihexyphenidyl(S)]	–	–	High (key: High: HIA value ≥0.7; Low: HIA value < 0.7)	1
C[C@H](CN(C)C)CN1c2ccccc2Sc2ccccc21 [Trimeprazine(R)]	–	–	High (key: High: HIA value ≥0.7; Low: HIA value < 0.7)	0.8
C[C@@H](CN(C)C)CN1c2ccccc2Sc2ccccc21 [Trimeprazine(S)]	–	–	High (key: High: HIA value ≥0.7; Low: HIA value < 0.7)	0.8
C[C@H](CN(C)C)CN1c2ccccc2CCc2ccccc21 [Trimipramine(R)]	–	–	High (key: High: HIA value ≥0.7; Low: HIA value < 0.7)	0.8
C[C@@H](CN(C)C)CN1c2ccccc2CCc2ccccc21 [Trimipramine(S)]	–	–	High (key: High: HIA value ≥0.7; Low: HIA value < 0.7)	0.8
O=C(O[C@H]1C[C@H]2CC[C@@H](C1)[N+]21CCCC1)C(O)(c1ccccc1)c1ccccc1 [Trospium_chloride]	–	–	Low (key: High: HIA value ≥0.7; Low: HIA value < 0.7)	0.1
CCCCC(=O)N(Cc1ccc(-c2ccccc2-c2nnn[nH]2)cc1)[C@H](C(=O)O)C(C)C [Valsartan(S)]	–	–	Low (key: High: HIA value ≥0.7; Low: HIA value < 0.7)	0.55
COc1ccc([C@H](CN(C)C)C2(O)CCCCC2)cc1 [Venlafaxine(R)]	–	–	High (key: High: HIA value ≥0.7; Low: HIA value < 0.7)	0.95
COc1ccc([C@@H](CN(C)C)C2(O)CCCCC2)cc1 [Venlafaxine(S)]	–	–	High (key: High: HIA value ≥0.7; Low: HIA value < 0.7)	0.95
COc1ccc(CCN(C)CCCN2CCc3cc(OC)c(OC)cc3CC2=O)cc1OC [Zatebradin]	–	–	High (key: High: HIA value ≥0.7; Low: HIA value < 0.7)	0.79
C[C@H](c1cc2ccccc2s1)N(O)C(N)=O [Zileuton(R)]	–	–	High (key: High: HIA value ≥0.7; Low: HIA value < 0.7)	1
C[C@@H](c1cc2ccccc2s1)N(O)C(N)=O [Zileuton(S)]	–	–	High (key: High: HIA value ≥0.7; Low: HIA value < 0.7)	1
Cc1ccc(-c2nc3ccc(C)cn3c2CC(=O)N(C)C)cc1 [Zolpidem]	–	–	High (key: High: HIA value ≥0.7; Low: HIA value < 0.7)	0.95
CN1CCN(C(=O)O[C@@H]2c3nccnc3C(=O)N2c2ccc(Cl)cn2)CC1 [Zopiclone(R)]	–	–	High (key: High: HIA value ≥0.7; Low: HIA value < 0.7)	0.98
CN1CCN(C(=O)O[C@H]2c3nccnc3C(=O)N2c2ccc(Cl)cn2)CC1 [Zopiclone(S)]	–	–	High (key: High: HIA value ≥0.7; Low: HIA value < 0.7)	0.98
